{"source": "paper PMC6148290", "about": "“Endogenous metabolites of vitamin E limit inflammation by targeting 5-lipoxygenase” (Nature Communications, 2018)", "key": {"[1]": {"tested_on": "peripheral blood mononuclear cells", "assay": "Cell viability of PBMC (MTT assay)", "assay_type": "cell-based, human", "conditions": "at 1 and 10 µM (one entry for both); 24 h; n.i. no inhibition", "description": "The formazan product was solubilized with SDS (10% in 20 mM HCl), and absorbance was measured at 570 nm using a Multiskan Spectrum microplate reader (Thermo Fisher Scientific)."}, "[2]": {"tested_on": "15-LO", "assay": "15-LO product formation in A23187/AA-activated PMNL", "assay_type": "cell-based, human", "conditions": "at 3 µM; mean ± s.e.m., n = 3; n.i. no inhibition"}, "[3]": {"tested_on": "zymosan-induced murine peritonitis", "assay": "Zymosan-induced peritonitis in mice", "assay_type": "in vivo, mouse", "conditions": "10 mg/kg i.p.", "description": "Mice were killed by inhalation of CO2 after another 30 min for determination of LTC4 levels and vascular permeability and after 4 h for the analysis of LTB4 levels, lipidomic profiles and immune cell infiltration. Cell infiltration and lipid mediator profiles during resolution were studied after 18 h. Peritoneal exudates were collected and cells counted after vital trypan blue staining. LTC4, LTB4, and PGE2 were analyzed in the exudate by enzyme immunoassays (Enzo Life Sciences, Lörrach, Germany) according to manufacturer's instructions. To assess vascular permeability, Evans blue dye (40 mg/kg in saline, 0.3 ml; Sigma-Aldrich) was injected into the tail vain immediately before the induction of peritonitis. Exudates were centrifuged (3000 × g, 5 min) and the absorbance of the supernatants was measured at 610 nm using a Beckman Coulter DU730 spectrophotometer. To investigate the effect of α-T (1a) on the accumulation of α-T-13'-COOH (4a) in infiltrated leukocytes after peritonitis has been established, vehicle or α-[…].) were given 1 h before and/or 4 h post zymosan injection, and mice were killed after another 1.5 h. Leukocytes were obtained from peritoneal exudates by centrifugation (1200 × g, 10 min, 4 °C)."}, "[4]": {"tested_on": "PMNL", "assay": "Uptake of vitamin E metabolites by PMNL", "assay_type": "in vitro ADME, human", "conditions": "150 nM, 20 min; calculated for spherical PMNL, diameter 13 µm", "description": "Freshly isolated PMNL (1 × 10^7/ml) were suspended in PBS pH 7.4 containing 1 mg/ml glucose. […] LCMs were extracted and analyzed by UPLC-MS/MS using γ-TE-13′-COOH (4g; 12.5 pmol) as internal standard. Intracellular vitamin E metabolite concentrations were calculated assuming spherical cell shape, an equal intracellular distribution, and an average diameter of 13 µm (as determined using a Vi-CELL Series Cell Counter, Beckman Coulter, Krefeld, Germany)."}, "[5]": {"biological_target": "T1, COX-1 (Homo sapiens, UniProt P23219)", "T1 construct": "Freshly isolated human platelets (1 × 10^8) were pre-incubated with LCMs; endogenous in cells; host or cells: washed human platelets", "T1 sequence (P23219 24-599)": "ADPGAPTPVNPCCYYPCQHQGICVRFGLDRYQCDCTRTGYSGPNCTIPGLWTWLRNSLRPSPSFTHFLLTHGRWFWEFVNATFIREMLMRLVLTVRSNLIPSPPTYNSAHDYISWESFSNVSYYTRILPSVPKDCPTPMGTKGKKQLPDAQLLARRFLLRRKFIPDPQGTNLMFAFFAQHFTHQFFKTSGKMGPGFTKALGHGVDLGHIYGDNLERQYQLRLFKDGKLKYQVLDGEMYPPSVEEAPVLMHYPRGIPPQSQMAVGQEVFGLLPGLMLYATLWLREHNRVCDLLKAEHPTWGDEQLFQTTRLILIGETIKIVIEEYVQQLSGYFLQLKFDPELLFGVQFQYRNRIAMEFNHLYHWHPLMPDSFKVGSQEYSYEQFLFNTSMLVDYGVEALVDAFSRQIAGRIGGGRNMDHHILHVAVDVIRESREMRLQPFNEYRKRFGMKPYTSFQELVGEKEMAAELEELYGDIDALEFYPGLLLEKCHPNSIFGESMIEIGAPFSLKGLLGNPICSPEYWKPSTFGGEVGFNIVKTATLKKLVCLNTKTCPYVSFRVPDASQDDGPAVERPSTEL", "assay": "COX-1 activity (12-HHT formation) in washed platelets", "assay_type": "cell-based", "description": "Freshly isolated human platelets (1 × 10^8) were pre-incubated with LCMs for 5 min at room temperature. Formation of COX-1-derived 12-HHT was initiated by addition of exogenous AA (5 µM)."}, "[6]": {"biological_target": "T2, 5-LO (Homo sapiens, UniProt P09917)", "T2 sequence (P09917 1-674)": "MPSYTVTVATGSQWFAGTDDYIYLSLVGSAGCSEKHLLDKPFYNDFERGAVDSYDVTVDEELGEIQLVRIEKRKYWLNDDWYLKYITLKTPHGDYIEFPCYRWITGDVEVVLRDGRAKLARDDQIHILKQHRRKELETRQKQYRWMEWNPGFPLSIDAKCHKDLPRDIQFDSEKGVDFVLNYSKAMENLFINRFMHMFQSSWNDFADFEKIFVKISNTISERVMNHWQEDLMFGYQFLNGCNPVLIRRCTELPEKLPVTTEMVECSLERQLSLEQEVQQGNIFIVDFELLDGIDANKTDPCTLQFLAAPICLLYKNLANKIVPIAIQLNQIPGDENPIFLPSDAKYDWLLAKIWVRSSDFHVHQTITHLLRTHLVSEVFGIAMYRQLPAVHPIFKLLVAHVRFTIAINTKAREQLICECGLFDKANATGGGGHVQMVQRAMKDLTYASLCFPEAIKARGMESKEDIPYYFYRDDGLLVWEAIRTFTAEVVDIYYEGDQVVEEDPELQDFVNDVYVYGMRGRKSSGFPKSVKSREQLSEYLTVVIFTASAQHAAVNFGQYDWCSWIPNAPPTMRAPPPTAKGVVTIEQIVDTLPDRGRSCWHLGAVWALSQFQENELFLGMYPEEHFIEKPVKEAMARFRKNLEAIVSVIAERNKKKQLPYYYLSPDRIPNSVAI", "assay": "Activity of purified human recombinant 5-LO (cell-free)", "assay_type": "biochemical", "design": "made in house; host or cells: E. coli Bl21 (DE3)", "description": "E. coli Bl21 (DE3) cells were transformed with pT3–5LO plasmid to express human recombinant 5-LO, which was purified by affinity chromatography on an ATP-agarose column. In brief, E. coli was lysed in 50 mM triethanolamine/HCl pH 8.0 plus EDTA (5 mM), soybean trypsin inhibitor (60 µg/ml), phenylmethanesulphonyl fluoride (1 mM), dithiothreitol (1 mM), and lysozyme (1 mg/ml). After sonication (3 × 15 s), the homogenate was centrifuged at 10,000 × g for 15 min and the supernatant again at 40,000 × g for 70 min at 4 °C. The supernatant was applied to an ATP-agarose column (Sigma-Aldrich), and the column was washed with (i) PBS pH 7.4, 1 mM EDTA, (ii) 50 mM phosphate buffer pH 7.4, 0.5 M NaCl, 1 mM EDTA, and (iii) 50 mM phosphate buffer pH 7.4, 1 mM EDTA. 5-LO was eluted with 50 mM phosphate buffer pH 7.4, 1 mM EDTA, 20 mM ATP.\nPurified 5-LO (0.5 µg) in PBS pH 7.4 containing EDTA (1 mM) and ATP (1 mM) was pre-incubated with LCMs for 10 min at 4 °C, pre-warmed for 30 s at 37 °C and 5-LO product formation was started by addition of AA (Sigma-Aldrich; 20 µM if not indicated otherwise) plus CaCl2 (2 mM). […] AA was added after incubation for 5 min on ice."}}}
{"smiles": "Cc1c(C)c2c(c(C)c1O)CC[C@@](C)(CCCC(C)CCCC(C)CCCC(C)C(=O)O)O2", "note": "(stereo partly drawn) [4a, 13-((2R)-6-hydroxy-2,5,7,8-tetramethylchroman-2-yl)-2,6,10-trimethyltridecanoic acid]", "values": [{"measurement": "Cell viability/peripheral blood mononuclear cells, residual viability", "setting": "[1]", "value": "n.i."}, {"measurement": "15-LO product formation/PMNL, residual activity", "setting": "[2]", "value": "52.6 ± 20.3 % of control"}, {"measurement": "vascular permeability", "setting": "[3]; 30 min post zymosan", "value": "reduced"}, {"measurement": "LTC4 levels in the exudate", "setting": "[3]; 30 min post zymosan, ELISA", "value": "strongly decreased"}, {"measurement": "immune cell infiltration into the peritoneal cavity", "setting": "[3]; 4 h post zymosan", "value": "impaired"}, {"measurement": "LTB4 levels in the exudate", "setting": "[3]; 4 h post zymosan, ELISA", "value": "impaired"}, {"measurement": "circulating resolvin E3 in plasma", "setting": "[3]; 18 h post zymosan", "value": "strongly increased"}, {"measurement": "suppressive effect on cell infiltration at the resolution phase", "setting": "[3]; 18 h post zymosan", "value": "vanished"}, {"measurement": "intracellular concentration reached in PMNL", "setting": "[4]", "value": "micromolar"}, {"measurement": "IC50", "setting": "[5]", "value": 6.9, "unit": "µM"}, {"measurement": "IC50", "setting": "[6]", "value": "0.27 ± 0.01", "unit": "µM"}]}
